Patent US20230110065A1, “COMBINATION OF ANETHOLE TRITHIONE OR ITS DERIVATIVE, 4-OH-ANETHOLE TRITHIONE, WITH DOXYCYCLINE OR MINOCYCLINE FOR THE USE THEREOF IN THE TREATMENT OF PARKINSON'S DISEASE” (priority 2020, published 2023)
“Also recorded” adds a separate entry of the source.

Tests used:
Parkinson's disease = experiment: Clinical case: person with Parkinson's disease; format: in vivo, human
Procedure: This therapeutic solution was tested on a person with Parkinson’s disease. A history of events over 3 years (current follow-up) is presented below:
Symptoms: At the very beginning of 2018, the first manifestations of Parkinson’s appeared: tremors in the left hand, slowing of walking pace, chaotic descent of stairs, tilting of the torso forward accompanied by back pain in the form of muscle contractures, as well as the beginnings of various obvious non-motor disorders (withdrawal, indifference, difficult decision-making, loss of joy in life, depression, etc.), constipation, hyposmia. Initially, ATT was tested as monotherapy.
Treatment: The problem then arose of deciding which dose to use. The patient was already taking ATT to treat a problem of benign prostatic hypertrophy (cf. patent WO2019/O73173) and used it with the greatest satisfaction at a dose of 3 cp to 25 mg, given in the morning and evening, but the dose turned out to be insufficient for treating Parkinson’s disease. A blood-brain barrier crossing problem was suspected and the decision was taken to increase this dose by 4 times by dividing it into 4 daily doses, i.e., 4 x 6 tablets/day (equivalent to 600 mg/day), so as to reduce concentration fluctuations as much as possible (the plasma half-life of ATT in humans is approximately 3 hrs).
Symptoms: In April-May 2019, unusual fatigue manifested when the patient performed strenuous tasks.
Treatment: Faced with worsening fatigue, the decision was taken, on Dec. 19, 2019, to add doxycycline at a dose of 50 mg every 6 hrs, which dose was intended to ensure stable concentrations in the LCR of approximately 0.9 µM/L (Dotevall, 1989; Karlsson, 1996), i.e., around 3 times what Gonzalez-Lizzaraga (2017) recommends.

[1] = system: dopaminergic neurons in midbrain cultures; experiment: Survival of dopaminergic (TH+) neurons in midbrain cultures under low-noise, spontaneous oxidative stress; format: cell-based, mouse; settings: 7 days, FIG. 8
Procedure: Midbrain cultures and immunodetection of tyrosine hydroxylase (TH): Mouse midbrain cultures were produced based on a protocol initially described by Troadec and colleagues (2001) and subsequently taken up by Rousseau and colleagues (2013). The cultures were generated from Swiss mouse embryos (Janvier LABS, Le Genest-St Isles) taken from the pregnant mother on day 13.5 of gestation. The cells dissociated from the midbrain were cultured in 48-well plates containing 500 µl of DMEM/HamF12 medium, supplemented with 10% fetal bovine serum (Biowest LLC, Les Ulis, France). Approximately 80-100 10^3 cells were added initially to each culture well. After one hour, the initial medium was replaced with the DMEM/HamF12 medium supplemented with 20 µg/mL of insulin. The culture medium (350 µl) and the treatments were renewed on days 1 and 3 in vitro. The cultures were maintained for a total of 7 days before binding and analysis. […] TH^+ neurons were counted according to a protocol described previously (Rousseau et al, 2013). The counts are expressed as % of the values obtained in the control cultures treated with apotransferrin.
Statistical analysis: The experimental data correspond to mean ± SEM values. […] The data were analyzed with the GraphPad Prism 8.3.1 software or Sigmaplot 12.5 software using One-Way ANOVA, followed by a post-hoc Student Newman Keuls test.

[2] = cited from earlier work
[3] = in humans; cited from earlier work
a-synuclein [4] = biological target: T1, a-synuclein (Homo sapiens, UniProt P37840); experiment: Transmission electron microscopy of a-synuclein aggregates; format: biochemical; settings: ATX 10 µM
T1 construct: made in house; host or cells: Escherichia coli (plasmid pT7-7)
Procedure: Transmission electron microscopy: The a-synuclein samples, shaken in the optional presence of the treatments of interest, were characterized by transmission electron microscopy. Aliquots of 50 µl of each solution were used for this analysis. The sample preparation protocol is described in detail by Gonzalez-Lizarraga and colleagues (2020). Images were obtained with a transmission electron microscope, Philips EM 301.

[5] = system: microglia in culture activated by LPS (TLR4 agonist); experiment: TNF-a release (ELISA) in microglia in culture activated by LPS; format: cell-based, mouse
Excerpt: Purification of microglia: The cultures were produced from a cell suspension obtained by mechanical dissociation of the brains of newborn mice, C57BL/6J (Janvier LABS), according to a protocol described by Sepulveda-Diaz and colleagues (Glia, 2016) and modified subsequently by dos-Santos-Pereira and colleagues (Glia, 2020). The protocol used follows the directives of the Council of the European Union (2010/63/EU). It was approved by the Ethics Committee for Animal Experimentation, Charles Darwin no. 5. Corning culture flasks of 75 cm^2 precoated with a polycation, polyethyleneimine (PEI; 1 mg/mL) diluted in a borate buffer pH 8.3, were used so as to obtain spontaneous isolation of the microglial cells after 15-20 days of culture, this isolation taking place at the expense of other cell populations, in particular, astrocytes. In order to maintain the flask cultures, Dulbecco’s modified Eagle’s medium (DMEM) supplemented with 10% fetal bovine serum (FBS, Biowest LLC) and 1% penicillin/streptomycin cocktail was used (see experimental details described in the publication of Sepulveda-Diaz and colleagues). After the microglia purification step, the microglia adhering in the culture flasks were trypsinized to produce subcultures in 48-well multi-well Nunc plates. These cultures were maintained in the presence of DMEM, supplemented with 20 mM HEPES and 1% FBS. […]
(§1) Assessment of TNF-a levels: The culture medium of the microglia, recovered 24 hrs after the stimulation by the inflammogens was initiated, was then frozen at -20° C. until the analysis. TNF-a was detected with an ELISA kit from ThermoFisher (BMS607-3TWO), following the supplier’s instructions (dos-Santos-Pereira et al, Glia, 2020). The absorbance of each sample was measured at 450 nm with a SpectraMax i3X.
(§2) Statistical analysis: The experimental data were analyzed with the GraphPad Prism 8.3.1 software by applying a One-Way ANOVA test, followed by a post-hoc Student Newman Keuls test.

[6] = system: microglia in culture activated by PAM3CSK4 (TLR2 agonist); experiment: TNF-a release (ELISA) in microglia in culture activated by PAM3CSK4; format: cell-based, mouse; settings: PAM3CSK4 1 µg/mL, 24 hrs; FIG. 4
Excerpt: Purification of microglia: The cultures were produced from a cell suspension obtained by mechanical dissociation of the brains of newborn mice, C57BL/6J (Janvier LABS), according to a protocol described by Sepulveda-Diaz and colleagues (Glia, 2016) and modified subsequently by dos-Santos-Pereira and colleagues (Glia, 2020). The protocol used follows the directives of the Council of the European Union (2010/63/EU). It was approved by the Ethics Committee for Animal Experimentation, Charles Darwin no. 5. […]
as §1, §2

a-synuclein [7] = biological target: T1, a-synuclein; experiment: Amyloid aggregation of a-synuclein by orbital shaking, Thioflavin-T test; format: biochemical; settings: ATX 1, 10 or 100 µM, 600 rpm, 37° C., 96 h; FIG. 5B
Procedure: Preparation of a-synuclein: Human recombinant a-synuclein was produced from a strain of Escherichia coli carrying a plasmid pT7-7 containing the coding sequence of the protein (Kaylor et al, J Mol Biol, 2005; Gonzalez-Lizarraga et al, Sci Rep, 2020). After a purification step, the purity of the protein was evaluated by polyacrylamide gel electrophoresis under denaturing conditions (SDS-PAGE). The stock solution of a-synuclein was prepared in a buffer containing 20 mM of HEPES and 150 mM of NaCl at pH 7.4. Before initiating the aggregation protocol, the protein was centrifuged at 12000 g for 30 minutes in order to eliminate the micro-aggregates. The protein concentration was measured at 280 nm with a Nanodrop 8000 spectrophotometer (Gonzalez-Lizarraga et al, Sci Rep, 2020).
Aggregation of a-synuclein […]: The aggregation protocol was adapted from previous work (Kaylor et al, J Mol Biol, 2005; Gonzalez-Lizarraga et al, Sci Rep, 2020). Briefly, the aggregation of a-synuclein was obtained by orbital shaking (600 rpm; Thermomixer Comfort; Eppendorf), at 37° C. for 96 h, of the recombinant protein (70 µM) solubilized in 20 mM of HEPES and 150 mM of NaCl, pH 7.4. Dimethylformamide (DMF) was used to dilute ATX in this experimental protocol. The formation of aggregated structures was monitored by means of the Thioflavin-T (ThT) test (LeVine et al, Meth Enzymol, 1999).

[8] = doxycycline 50 mg every 6 hrs; intended, from Dotevall, 1989; Karlsson, 1996; cited from earlier work

Structure (SMILES): COc1ccc(-c2cc(=S)ss2)cc1 [ATT, anethole trithione]
- Duration of satisfactory treatment (Parkinson's disease; ATT 150 mg, 4 times a day): 13 months
- Duration of failure with the onset of new symptoms (Parkinson's disease; ATT 150 mg, 4 times a day, after the satisfactory period): 7 months
- Side effects (Parkinson's disease; two years of treatment): no significant side effects have been noted during these two years of treatment, apart from intestinal meteorism
- Protection as % of that of APO (apotransferrin) ([1]; 0.75 µM): 0.6%
- Metabolization of ATT ([2]; He 2011, Li TM 2007, Li WY 2008): metabolizes almost immediately and completely into ATX via O-demethylation
- ATT found in the patient's urine ([2]; over a 24-hour period): almost no ATT can be found
- Plasma half-life [3]: approximately 3 hrs

Structure (SMILES): Oc1ccc(-c2cc(=S)ss2)cc1 [ATX, 4-hydroxy-anethole trithione]
- Amyloid aggregation of a-synuclein seen by TEM (a-synuclein [4]): effectively reduces the amyloid aggregation of a-synuclein
- Release of TNF-a (inflammation marker), result in words ([5]; LPS 10 ng/mL, 24 hrs, FIG. 3): capable of inhibiting the release of TNF-a
- Release of TNF-a (inflammation marker), result in words [6]: capable of inhibiting the release of TNF-a
- Inhibition of a-synuclein aggregation (ThT fluorescence), result in words (a-synuclein [7]): effective, even at a low concentration; also recorded: effectively and concentration-dependently inhibiting the aggregation

Structure (SMILES): C[C@H]1c2cccc(O)c2C(=O)C2=C(O)[C@]3(O)C(=O)C(C(N)=O)=C(O)[C@@H](N(C)C)[C@@H]3[C@@H](O)[C@@H]21 [DOX, doxycycline]
- Stable concentrations in the LCR [8]: approximately 0.9 µM/L
- inhibition at 50 µM ([5]; Mus musculus, Microglia, LPS model, 50 µM of DOX, read-out: Inhibition of the release of TNFa): 50%
- inhibition at 100 µM ([5]; Mus musculus, Microglia, LPS model, 100 µM of DOX, read-out: Inhibition of the release of TNFa): ~70%
- Protective effect as % of that of apotransferrin ([1]; DOX 7.5 µM): 27%

Structure (SMILES): N[C@@H](Cc1ccc(O)c(O)c1)C(=O)O [L-DOPA]
- Effect of introducing SINEMET (L-DOPA) on symptoms (Parkinson's disease; July 2019, patient on ATT 600 mg/day): solved the problem of loss of balance but the hand tremors only slightly improved and fatigue persisted
